In BindingDB's records for patent US12503484 (Seismic Pharmaceuticals, 2025):
pIC50: −log10 of the molar value.

Molecular target: Sodium/potassium-transporting ATPase subunit alpha-1 (Canis lupus familiaris, UniProt P50997)
Test: Inhibition of Dog Renal Na+/K+ ATPase Activity
Method: Increasing concentrations of the standard ouabain, or tested compound, were incubated with 0.3 μg of purified dog kidney enzyme for 10 min at 37° C. in 120 μl final volume of a medium containing 140 mM NaCl, 3 mM MgCl2, 50 mM Hepes-Tris, 3 mM ATP, pH 7.5. Then, 10 μl of a solution containing 10 mM KCl and 20 nCi of 32P-ATP (3-10 Ci/mmol, Perkin Elmer) were added. The reaction was allowed to continue for 15 min at 37° C. and then stopped by acidification with 20% v/v ice-cold perchloric acid. 32P was separated by centrifugation with activated Charcoal (Norit A, Serva) and the radioactivity was counted. The inhibitory activity was expressed as percent of the control samples carried out in the absence of ouabain, or tested compound.

SMILES | pIC50
CCCC(=O)OCCC1CC[C@@]2(C)C(C1)[C@@H](O)C[C@@H]1[C@@H]2CC[C@]2(C)C(=O)CC[C@@H]12 (some centres not stated) [US12503484, Compound CVie217] | < 4.00
CCCCC(C(=O)O)C1CC[C@@]2(C)C(C1)[C@H](O)C[C@@H]1[C@@H]2CC[C@]2(C)C(=O)CC[C@@H]12 (some centres not stated) [US12503484, Compound CVie219] | < 4.00
